# Measured values: ChEMBL document CHEMBL3137667, “[Drug-induced liver injury; fourteenth updated edition of the bibliographic database of liver injuries and related drugs]” (Gastroenterol Clin Biol, 2004)
# Tests used:
# [1] = human
# [2] = human; remark: listed apart in the source
# [3] = human; remark: listed apart in the source
# [4] = human, serum
# [5] = human; remark: listed apart in the source
# [6] = human; remark: listed apart in the source
# [7] = human; remark: listed apart in the source
# [8] = human; remark: listed apart in the source
# [9] = human; remark: listed apart in the source
# [10] = human, serum, 4383 h
# [11] = human; remark: listed apart in the source
# [12] = Highest frequency of moderate liver toxicity observed during clinical trials, expressed as a percentage. [column '% BIOL' in source]; conditions: human
# [13] = Proposed mechanism(s) of liver damage. [column 'MEC' in source]; conditions: human
# [14] = human, serum; remark: listed apart in the source
# [15] = Highest frequency of acute liver toxicity observed during clinical trials, expressed as a percentage. [column '% AIGUE' in source]; conditions: human
# [16] = Times to onset, minimal and maximal, observed in the indexed observations. [column 'DELAI' in source]; conditions: human
# 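For Hepatotoxicity (association with vascular disease) in this document: count of indexed literature references reporting vascular liver injury in humans, e.g. peliosis hepatitis, hepatic veno-occlusive disease or Budd-Chiari syndrome.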
# 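For Hepatotoxicity (benign tumour) in this document: value is a count of indexed literature references citing a benign tumour confirmed by histopathology.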
# 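For Hepatotoxicity (choleostasis) in this document: human cholestatic liver injury, shown by histopathology or by peak ALT or AST elevation over alkaline phosphatase ratio below 2, value counts indexed literature reports.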
# 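For Hepatotoxicity (chronic liver disease) in this document: chronic liver injury confirmed by histopathology or persistently raised serum aminotransferase activity beyond 6 months, value given as the count of indexed literature references.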
# 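For Hepatotoxicity (cirrhosis) in this document: value is a count of indexed literature references reporting cirrhosis confirmed by histopathology.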
# 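For Hepatotoxicity (cytolytic) in this document: human cytolytic liver injury, shown by histopathology or by a ratio above 5 of peak ALT or AST elevation to alkaline phosphatase elevation, value counts indexed references.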
# 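For Hepatotoxicity (granulomatous hepatitis) in this document: value is a count of indexed literature references reporting granulomatous liver disease confirmed by histopathology.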
# 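For Hepatotoxicity (malignant tumour) in this document: malignant tumour confirmed by histopathology, value gives the count of indexed literature references reporting it.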
# 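For Hepatotoxicity (severe hepatitis) in this document: human clinical data: severe hepatitis, meaning potentially life-threatening liver failure or clinically observed cases, the value counts how many indexed literature references report it.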
# 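For Hepatotoxicity (steatosis) in this document: steatosis confirmed by histopathology, value is the count of indexed references.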
SMILES,Hepatotoxicity (benign tumour) [1],Hepatotoxicity (association with vascular disease) [2],Hepatotoxicity (cirrhosis) [3],Hepatotoxicity (acute) [4],Hepatotoxicity (steatosis) [5],Hepatotoxicity (granulomatous hepatitis) [6],Hepatotoxicity (choleostasis) [7],Hepatotoxicity (malignant tumour) [8],Hepatotoxicity (severe hepatitis) [9],Hepatotoxicity (chronic liver disease) [10],Hepatotoxicity (cytolytic) [11],Hepatotoxicity (moderate) [12] [%],Hepatotoxicity (mechanism) [13],Hepatotoxicity (moderate) [14],Hepatotoxicity (acute) [15] [%],Hepatotoxicity (time to onset) [16],Hepatotoxicity (severe hepatitis) ([9]; Liver),Hepatotoxicity (moderate) ([12]; Liver) [%],Hepatotoxicity (acute) ([15]; Liver) [%]
CC(=O)c1ccc(S(=O)(=O)NC(=O)NC2CCCCC2)cc1 [ACETOHEXAMIDE],0,0,1,6,0,0,0,0,0,0,2,0,Dose-dependant,0,0,3 weeks - 17 months,,,
CCCCN1CCCCC1C(=O)Nc1c(C)cccc1C (stereo not drawn) [BUPIVACAINE],0,0,0,2,0,0,2,0,0,0,1,0,Allergic,0,0,2 weeks - 1 month,,,
CC12CCC(CC1=O)C2(C)C (stereo not drawn) [CAMPHOR],0,0,0,1,0,0,0,0,0,0,1,0,Dose-dependant,0,0,3 days,,,
CC(C(=O)O)c1ccc2c(c1)[nH]c1ccc(Cl)cc12 (stereo not drawn) [CARPROFEN],0,0,0,0,0,0,0,0,0,0,0,56.3,Dose-dependant,5,0,1 week - 1 month,,,
CC1=C(C(=O)O)N2C(=O)[C@@H](NC(=O)[C@H](N)c3ccc(O)cc3)[C@H]2SC1 [CEFADROXIL],0,0,0,2,0,0,2,0,,0,1,,Allergic,1,,4 days - 6 days,0,3.1,0
Cc1nnc(SCC2=C(C(=O)O)N3C(=O)[C@@H](NC(=O)Cn4cnnn4)[C@H]3SC2)s1 [CEFAZOLIN],0,0,0,2,0,0,1,0,,0,1,,Allergic,11,,1 week - 25 days,0,42.9,0
O=C(O)C1=C(CSc2nnnn2CS(=O)(=O)O)CS[C@@H]2[C@H](NC(=O)[C@H](O)c3ccccc3)C(=O)N12 [CEFONICID],0,0,0,2,0,0,0,0,0,0,0,29,Allergic,10,5.9,4 days - 20 days,,,
CO/N=C(\C(=O)N[C@@H]1C(=O)N2C(C(=O)OC(C)OC(C)=O)=C(COC(N)=O)CS[C@H]12)c1ccco1 (stereo partly drawn) [CEFUROXIME AXETIL],0,0,0,2,0,0,1,0,0,0,0,20,Allergic,31,0.2,4 days,,,
CO/N=C(\C(=O)N[C@@H]1C(=O)N2C(C(=O)O)=C(COC(N)=O)CS[C@H]12)c1ccco1 [CEFUROXIME],0,0,0,1,0,0,0,0,1,0,1,29.1,Allergic,8,0,2 days,,,
CC1=C(C(=O)O)N2C(=O)[C@@H](NC(=O)[C@H](N)c3ccccc3)[C@H]2SC1 [CEPHALEXIN ANHYDROUS],0,0,0,6,0,1,4,0,2,0,3,4.8,Allergic,4,0,1 week - 9 days,,,
O=C1CN=C(c2ccccc2Cl)c2cc([N+](=O)[O-])ccc2N1 [CLONAZEPAM],0,0,0,2,0,0,0,0,,0,2,,Toxic Metabolite,0,,3 weeks - 4 months,1,0,0
CN(C)/N=N/c1[nH]cnc1C(N)=O [DACARBAZINE],0,24,0,5,0,0,2,0,6,0,4,50,"Allergic, Toxic",12,0,1 cure - 4 cures,,,
CN(C)[C@@H]1C(O)=C(C(N)=O)C(=O)[C@@]2(O)C(O)=C3C(=O)c4c(O)ccc(Cl)c4[C@@H](O)[C@H]3C[C@@H]12 [DEMECLOCYCLINE],0,0,0,1,1,0,0,0,2,0,1,0,Dose-dependant,0,0,2 days - 2 months,,,
